Source: patent US20250312474A1, “ANTHRACYCLINS AND CONJUGATES THEREOF” (priority 2022, published 2025)
Read-outs that look alike come from different tables or passages of the source.

Experiments:
[1] = tested on: SK-OV-3 cells; assay: In vitro cytotoxicity of free payloads (resazurin cell viability, 3 days); type: cell-based; conditions: Homo sapiens, SK-OV-3, 72 h, read-out: IC50 SK-OV-3 (HER2 3+)
Method: (§1) SK-OV-3, NCI-N87, JIMT-1 and MDA-MB-231 cells were plated in 96-well plates (5000 cells/well) in RPMI-1640 GlutaMAX (Invitrogen) supplemented with 10% fetal bovine serum (FBS) (Invitrogen, 150 μL/well) and incubated overnight in a humidified atmosphere at 37° C. and 5% CO2. Compounds 6a, 6b, 6c, 6d and 6e were added in triplo in a square root of 10-fold dilution series to obtain a final concentration ranging from 1 pM to 10 nM (for SK-OV-3 and NCI-N87) or 10 pM to 100 nM (for JIMT-1 and MDA-MB-231) and a final volume of 200 μL/well. The cells were incubated for 3 days in a humidified atmosphere at 37° C. and 5% CO2. The culture medium was replaced by 0.01 mg/mL resazurin (Sigma Aldrich) in RPMI-1640 GlutaMAX supplemented with 10% FBS (200 μL/well). After 4 hours in a humidified atmosphere at 37° C. and 5% CO2 the fluorescence was detected with a fluorescence plate reader (Infinite® M1000 Tecan) at 560 nm excitation and 590 nm emission. The relative fluorescent units (RFU) were normalized to cell viability percentage by setting wells without cells at 0% viability and wells with untreated cells at 100% viability. Viability was plotted using Graphpad prism software (see FIG. 20).

[2] = tested on: MDA-MB-231 cells; assay: as above; type: cell-based; conditions: for IC50 MDA-MB-231 (HER2−): free payload, 3 days incubation, 10 pM to 100 nM; for IC50: Homo sapiens, MDA-MB-231, 72 h, read-out: IC50 MDA-MB-231 (HER2−)
Method: as §1

[3] = tested on: JIMT-1 cells; assay: as above; type: cell-based, human; conditions: for IC50 JIMT-1 (HER2 1+): free payload, 3 days incubation, 10 pM to 100 nM; for IC50: Homo sapiens, JIMT-1, 72 h, read-out: IC50 JIMT-1 (HER2 1+)
Method: as §1

[4] = tested on: NCI-N87 cells; assay: as above; type: cell-based; conditions: Homo sapiens, NCI-N87, 72 h, read-out: IC50 NCI-N87 (HER2 3+)
Method: as §1, with “Compounds 6a, 6b, 6c, 6d and 6e were added in triplo in a square root of 10-fold dilution series to obtain a final concentration ranging from 1 pM to 10 nM (for SK-OV-3 and NCI-N87) or 10 pM to 100 nM (for JIMT-1 and MDA-MB-231) and a final volume of 200 μL/well.” left out

[5] = more potent than doxorubicin; cited from earlier work
[6] = tested on: preclinical models; conditions: cited from earlier work
[7] = free payload, 3 days incubation, 1 pM to 10 nM

COc1cccc2c1C(=O)c1c(O)c3c(c(O)c1C2=O)C[C@@](O)(C(=O)CO)C[C@@H]3O[C@H]1C[C@H]2[C@H](O[C@@H]3[C@@H](OC)OCCN32)[C@H](C)O1 [Compound 6a, reference compound]
IC50 [1, 7]: 0.028 nM | IC50 MDA-MB-231 (HER2−) [2]: no accurate IC50 value could be calculated | IC50 JIMT-1 (HER2 1+) [3]: no accurate IC50 value could be calculated | IC50 [4, 7]: 0.085 nM

COc1cccc2c1C(=O)c1c(O)c3c(c(O)c1C2=O)C[C@@](O)(C(=O)CO)C[C@@H]3O[C@H]1C[C@H]2[C@H](O[C@@H]3[C@@H](OCCN=[N+]=[N-])OCCN32)[C@H](C)O1 [Compound 6b]
IC50 [1]: 0.099 nM | IC50 MDA-MB-231 (HER2−) [2]: no accurate IC50 value could be calculated | IC50 JIMT-1 (HER2 1+) [3]: no accurate IC50 value could be calculated

COc1cccc2c1C(=O)c1c(O)c3c(c(O)c1C2=O)C[C@@](O)(C(=O)CO)C[C@@H]3O[C@H]1C[C@H]2[C@H](O[C@@H]3[C@@H](OC(C)C)OCCN32)[C@H](C)O1 [Compound 6c]
IC50 [1]: 0.187 nM | IC50 [2]: 0.174 nM | IC50 [3]: 0.159 nM | IC50 [4]: 0.416 nM

COc1cccc2c1C(=O)c1c(O)c3c(c(O)c1C2=O)C[C@@](O)(C(=O)CO)C[C@@H]3O[C@H]1C[C@H]2[C@H](O[C@@H]3[C@@H](OCc4ccccc4)OCCN32)[C@H](C)O1 [Compound 6d]
IC50 [1]: 0.217 nM | IC50 [2]: 0.169 nM | IC50 [3]: 0.259 nM | IC50 [4]: 0.339 nM

COc1cccc2c1C(=O)c1c(O)c3c(c(O)c1C2=O)C[C@@](O)(C(=O)CO)C[C@@H]3O[C@H]1C[C@H]2[C@H](O[C@@H]3[C@@H](OCc4ccc(N=[N+]=[N-])cc4)OCCN32)[C@H](C)O1 [Compound 6e]
IC50 [1]: 0.845 nM | IC50 [2]: 0.705 nM | IC50 [3]: 0.52 nM | IC50 [4]: 0.795 nM

COc1cccc2c1C(=O)c1c(O)c3c(c(O)c1C2=O)C[C@@](O)(C(=O)CO)C[C@@H]3O[C@H]1C[C@H]2[C@H](O[C@@H]3[C@@H](OC)OCCN32)[C@H](C)O1 [PNU-159,682]
potency relative to doxorubicin [5]: > 1000 × | MED [6]: 0.033 mg/kg
